Measured values: PubChem BioAssay AID2060898 (Molecular Pharmacology Branch, DTP, NCI, 2025)

Tested on: 616215-338-R-J1-PDC complex spheroid viability
Experiment: Anticancer human tumor 616215-338-R-J1-PDC patient-derived colon adenocarcinoma cell line growth inhibition [RAS]
Details: for IC50: curve of first compound; for viability, T/C: stronger effect = lower value
In short: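 Agents were tested in combination matrices in half-log decrements from a top concentration at or near clinical Cmax (10 microM if undetermined). Targets were multi-cell spheroids of tumour lines plus HUVEC and MSC stromal cells.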

[1] = second compound 0.000949 µM, first compound 0.0316 µM
[2] = second compound 0.000949 µM, first compound 0.1 µM
[3] = second compound 0.000949 µM, first compound 0.316 µM
[4] = second compound 0.000949 µM, first compound 1 µM
[5] = second compound 0.000949 µM, first compound 3.16 µM
[6] = second compound 0.000949 µM, first compound 10 µM
[7] = second compound 0.003 µM, first compound 0.0316 µM
[8] = second compound 0.003 µM, first compound 0.1 µM
[9] = second compound 0.003 µM, first compound 0.316 µM
[10] = second compound 0.003 µM, first compound 1 µM
[11] = second compound 0.003 µM, first compound 3.16 µM
[12] = second compound 0.003 µM, first compound 10 µM
[13] = second compound 0.00949 µM, first compound 0.0316 µM
[14] = second compound 0.00949 µM, first compound 0.1 µM
[15] = second compound 0.00949 µM, first compound 0.316 µM
[16] = second compound 0.00949 µM, first compound 1 µM
[17] = second compound 0.00949 µM, first compound 3.16 µM
[18] = second compound 0.00949 µM, first compound 10 µM
[19] = second compound 0.03 µM, first compound 0.0316 µM
[20] = second compound 0.03 µM, first compound 0.1 µM
[21] = second compound 0.03 µM, first compound 0.316 µM
[22] = second compound 0.03 µM, first compound 1 µM
[23] = second compound 0.03 µM, first compound 3.16 µM
[24] = second compound 0.03 µM, first compound 10 µM
[25] = second compound 0.0949 µM, first compound 0.0316 µM
[26] = second compound 0.0949 µM, first compound 0.1 µM
[27] = second compound 0.0949 µM, first compound 0.316 µM
[28] = second compound 0.0949 µM, first compound 1 µM
[29] = second compound 0.0949 µM, first compound 3.16 µM
[30] = second compound 0.0949 µM, first compound 10 µM
[31] = second compound 0.3 µM, first compound 0.0316 µM
[32] = second compound 0.3 µM, first compound 0.1 µM
[33] = second compound 0.3 µM, first compound 0.316 µM
[34] = second compound 0.3 µM, first compound 1 µM
[35] = second compound 0.3 µM, first compound 3.16 µM
[36] = second compound 0.3 µM, first compound 10 µM
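Also: spheroids exposed to agents for seven days before viability readout.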
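For viability, T/C in this document: 100% = DMSO vehicle control viability.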

Work on CC(C)NCC(C(=O)N1CCN(c2ncnc3c2C(C)CC3O)CC1)c1ccc(Cl)cc1 (stereo not drawn) + CCn1c(-c2cccnc2C(C)OC)c2c3cc(ccc31)N1CCOC(CC(NC(=O)C(C(C)C)N(C)C(=O)C3(F)CCN(C(=O)C#CC(C)(C)N(C)C)CC3)C(=O)N3CCCC(N3)C(=O)OCC(C)(C)C2)C1 yielded an IC50 (second compound 0.000949 µM) of 8.75 µM, an IC50 (second compound 0.003 µM) of over 10 µM and an IC50 (second compound 0.00949 µM) of over 10 µM. The IC50 (second compound 0.03 µM) was 8.38 µM, the IC50 (second compound 0.0949 µM) was 6.15 µM and the IC50 (second compound 0.3 µM) was 3 µM. The viability, T/C [1] was 106%, the viability, T/C [2] was 106% and the viability, T/C [3] was 102%. For the same compound, the viability, T/C [4] was 113%, the viability, T/C [5] was 90.7% and the viability, T/C [6] was 44.7%. It also gave a viability, T/C [7] of 98.1%, a viability, T/C [8] of 95.9% and a viability, T/C [9] of 94%. For the same compound, the viability, T/C [10] was 98.4%, the viability, T/C [11] was 97.4% and the viability, T/C [12] was 50.9%. It also gave a viability, T/C [13] of 112%, a viability, T/C [14] of 101% and a viability, T/C [15] of 93.5%. The viability, T/C [16] was 98.5%, the viability, T/C [17] was 85.5% and the viability, T/C [18] was 51.1%. For the same compound, the viability, T/C [19] was 99.7%, the viability, T/C [20] was 98.8% and the viability, T/C [21] was 105%. The viability, T/C [22] was 111%, the viability, T/C [23] was 96.2% and the viability, T/C [24] was 41.4%. It also gave a viability, T/C [25] of 118%, a viability, T/C [26] of 108% and a viability, T/C [27] of 111%. It also gave a viability, T/C [28] of 97.2%, a viability, T/C [29] of 73.9% and a viability, T/C [30] of 32.4%. It also gave a viability, T/C [31] of 116%, a viability, T/C [32] of 116% and a viability, T/C [33] of 108%. For the same compound, the viability, T/C [34] was 85.6%, the viability, T/C [35] was 48.1% and the viability, T/C [36] was 28.6%.
Work on CC(C)n1nc(-c2ccc3oc(N)nc3c2)c2c(N)ncnc21 + CCn1c(-c2cccnc2C(C)OC)c2c3cc(ccc31)N1CCOC(CC(NC(=O)C(C(C)C)N(C)C(=O)C3(F)CCN(C(=O)C#CC(C)(C)N(C)C)CC3)C(=O)N3CCCC(N3)C(=O)OCC(C)(C)C2)C1 yielded an IC50 (second compound 0.000949 µM) of over 0.1 µM, an IC50 (second compound 0.003 µM) of over 0.1 µM and an IC50 (second compound 0.00949 µM) of over 0.1 µM. It also gave an IC50 (second compound 0.03 µM) of over 0.1 µM, an IC50 (second compound 0.0949 µM) of over 0.1 µM and an IC50 (second compound 0.3 µM) of 0.0662 µM. It also gave a viability, T/C (second compound 0.000949 µM, first compound 0.000316 µM) of 95.6%, a viability, T/C (second compound 0.000949 µM, first compound 0.001 µM) of 97.1% and a viability, T/C (second compound 0.000949 µM, first compound 0.00316 µM) of 108%. The viability, T/C (second compound 0.000949 µM, first compound 0.01 µM) was 96.9%, the viability, T/C [1] was 112% and the viability, T/C [2] was 72.2%. For the same compound, the viability, T/C (second compound 0.003 µM, first compound 0.000316 µM) was 102%, the viability, T/C (second compound 0.003 µM, first compound 0.001 µM) was 98.9% and the viability, T/C (second compound 0.003 µM, first compound 0.00316 µM) was 97.8%. It also gave a viability, T/C (second compound 0.003 µM, first compound 0.01 µM) of 105%, a viability, T/C [7] of 116% and a viability, T/C [8] of 74.1%. It also gave a viability, T/C (second compound 0.00949 µM, first compound 0.000316 µM) of 100%, a viability, T/C (second compound 0.00949 µM, first compound 0.001 µM) of 90.7% and a viability, T/C (second compound 0.00949 µM, first compound 0.00316 µM) of 101%. The viability, T/C (second compound 0.00949 µM, first compound 0.01 µM) was 111%, the viability, T/C [13] was 111% and the viability, T/C [14] was 66.6%. For the same compound, the viability, T/C (second compound 0.03 µM, first compound 0.000316 µM) was 95.5%, the viability, T/C (second compound 0.03 µM, first compound 0.001 µM) was 96.1% and the viability, T/C (second compound 0.03 µM, first compound 0.00316 µM) was 115%. It also gave a viability, T/C (second compound 0.03 µM, first compound 0.01 µM) of 106%, a viability, T/C [19] of 102% and a viability, T/C [20] of 64.1%. It also gave a viability, T/C (second compound 0.0949 µM, first compound 0.000316 µM) of 109%, a viability, T/C (second compound 0.0949 µM, first compound 0.001 µM) of 109% and a viability, T/C (second compound 0.0949 µM, first compound 0.00316 µM) of 113%. For the same compound, the viability, T/C (second compound 0.0949 µM, first compound 0.01 µM) was 110%, the viability, T/C [25] was 108% and the viability, T/C [26] was 55.8%. For the same compound, the viability, T/C (second compound 0.3 µM, first compound 0.000316 µM) was 106%, the viability, T/C (second compound 0.3 µM, first compound 0.001 µM) was 106% and the viability, T/C (second compound 0.3 µM, first compound 0.00316 µM) was 103%. For the same compound, the viability, T/C (second compound 0.3 µM, first compound 0.01 µM) was 82.1%, the viability, T/C [31] was 71.8% and the viability, T/C [32] was 38.9%.
CC(Nc1ccc2c(c1)OCCn1cc(N3C(=O)OCC3C(F)F)nc1-2)C(N)=O (stereo not drawn) + CCn1c(-c2cccnc2C(C)OC)c2c3cc(ccc31)N1CCOC(CC(NC(=O)C(C(C)C)N(C)C(=O)C3(F)CCN(C(=O)C#CC(C)(C)N(C)C)CC3)C(=O)N3CCCC(N3)C(=O)OCC(C)(C)C2)C1 was tested, and the IC50 (second compound 0.000949 µM) was over 10 µM, the IC50 (second compound 0.003 µM) was over 10 µM and the IC50 (second compound 0.00949 µM) was over 10 µM. The IC50 (second compound 0.03 µM) was over 10 µM, the IC50 (second compound 0.0949 µM) was over 10 µM and the IC50 (second compound 0.3 µM) was 9.65 µM. The viability, T/C [1] was 106%, the viability, T/C [2] was 112% and the viability, T/C [3] was 109%. It also gave a viability, T/C [4] of 101%, a viability, T/C [5] of 93.2% and a viability, T/C [6] of 91.9%. For the same compound, the viability, T/C [7] was 107%, the viability, T/C [8] was 116% and the viability, T/C [9] was 103%. It also gave a viability, T/C [10] of 102%, a viability, T/C [11] of 99.7% and a viability, T/C [12] of 84.2%. For the same compound, the viability, T/C [13] was 97.5%, the viability, T/C [14] was 116% and the viability, T/C [15] was 109%. The viability, T/C [16] was 114%, the viability, T/C [17] was 91.5% and the viability, T/C [18] was 78.7%. It also gave a viability, T/C [19] of 95.4%, a viability, T/C [20] of 109% and a viability, T/C [21] of 98.9%. It also gave a viability, T/C [22] of 108%, a viability, T/C [23] of 96.4% and a viability, T/C [24] of 78.3%. It also gave a viability, T/C [25] of 123%, a viability, T/C [26] of 106% and a viability, T/C [27] of 103%. For the same compound, the viability, T/C [28] was 92%, the viability, T/C [29] was 106% and the viability, T/C [30] was 90%. It also gave a viability, T/C [31] of 102%, a viability, T/C [32] of 87.6% and a viability, T/C [33] of 94.5%. For the same compound, the viability, T/C [34] was 68.1%, the viability, T/C [35] was 103% and the viability, T/C [36] was 48.7%.
C[C@@H](NC(=O)c1ncnc(N)c1Cl)c1ncc(C(=O)Nc2cc(C(F)(F)F)c(Cl)cn2)s1 + CCn1c(-c2cccnc2C(C)OC)c2c3cc(ccc31)N1CCOC(CC(NC(=O)C(C(C)C)N(C)C(=O)C3(F)CCN(C(=O)C#CC(C)(C)N(C)C)CC3)C(=O)N3CCCC(N3)C(=O)OCC(C)(C)C2)C1 showed an IC50 (second compound 0.000949 µM) of over 10 µM, an IC50 (second compound 0.003 µM) of over 10 µM and an IC50 (second compound 0.00949 µM) of over 10 µM. For the same compound, the IC50 (second compound 0.03 µM) was over 10 µM, the IC50 (second compound 0.0949 µM) was over 10 µM and the IC50 (second compound 0.3 µM) was 6.23 µM. The viability, T/C [1] was 108%, the viability, T/C [2] was 103% and the viability, T/C [3] was 100%. It also gave a viability, T/C [4] of 117%, a viability, T/C [5] of 113% and a viability, T/C [6] of 61.5%. The viability, T/C [7] was 94.2%, the viability, T/C [8] was 105% and the viability, T/C [9] was 104%. For the same compound, the viability, T/C [10] was 120%, the viability, T/C [11] was 107% and the viability, T/C [12] was 68%. For the same compound, the viability, T/C [13] was 103%, the viability, T/C [14] was 100% and the viability, T/C [15] was 101%. It also gave a viability, T/C [16] of 112%, a viability, T/C [17] of 121% and a viability, T/C [18] of 72.7%. For the same compound, the viability, T/C [19] was 101%, the viability, T/C [20] was 98.6% and the viability, T/C [21] was 116%. It also gave a viability, T/C [22] of 111%, a viability, T/C [23] of 112% and a viability, T/C [24] of 68.6%. The viability, T/C [25] was 109%, the viability, T/C [26] was 115% and the viability, T/C [27] was 116%. For the same compound, the viability, T/C [28] was 86.1%, the viability, T/C [29] was 90% and the viability, T/C [30] was 54.6%. The viability, T/C [31] was 113%, the viability, T/C [32] was 111% and the viability, T/C [33] was 100%. It also gave a viability, T/C [34] of 79.8%, a viability, T/C [35] of 66.5% and a viability, T/C [36] of 39.7%.
